Among the test systems are UACC-62 melanoma; CAKI-1 renal; LXFL 529 NSCLC; DMS 114 small cell lung; SK-OV-3 ovarian; HOP-92 NSCLC; RXF 393 renal; NCI/ADR-RES ovarian; PC-3 prostate; T-47D breast.
Common to all, as to assay: NCI-60 cell line screen, 48 h

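Values below derive from 48-hour exposures of cells grown in 96-well plates, with endpoints linearly interpolated between the two concentrations bracketing the appropriate inhibition level. At the GI50, growth is halved. TGI: concentration producing complete growth inhibition.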

Regarding `COC(=O)c1ccc(C(=O)OC)c2nc3cc(Cl)ccc3nc12`, the TGI with UACC-62 melanoma, in the assay with CAKI-1 renal, with LXFL 529 NSCLC, with DMS 114 small cell lung, with SK-OV-3 ovarian and in the assay on HOP-92 NSCLC was > 100 µM each time.

Turning to `CCOC(=O)/C(C#N)=C\Sc1ccccc1`, the TGI turned out to be 42.3 µM with UACC-62 melanoma; 65.9 µM in the assay on CAKI-1 renal; 57.3 µM with LXFL 529 NSCLC; 35.1 µM with RXF 393 renal; 33.9 µM in the assay with DMS 114 small cell lung; 74.7 µM in the assay on SK-OV-3 ovarian. Besides, in the assay on HOP-92 NSCLC, the TGI was > 100 µM.

As for `O=C1C(Cl)=C(Cl)C(=O)N1c1cccc(C(F)(F)F)c1`, the TGI with UACC-62 melanoma is > 100 µM; in the assay on CAKI-1 renal, 98 µM; with LXFL 529 NSCLC it was > 100 µM; with RXF 393 renal it was 70 µM; with DMS 114 small cell lung it was > 100 µM; in the assay with SK-OV-3 ovarian, > 100 µM. Moreover, the TGI in the assay on HOP-92 NSCLC was > 100 µM.

On to `O=C(O)/C(Cl)=C(Cl)/C=N/NC(=O)c1cc2ccccc2cc1O`, for which the TGI in the assay on UACC-62 melanoma was 14.6 µM; with CAKI-1 renal, > 100 µM; in the assay on LXFL 529 NSCLC, > 100 µM; with DMS 114 small cell lung, 51.5 µM; with SK-OV-3 ovarian it was > 100 µM; with HOP-92 NSCLC it was > 100 µM.

Regarding `C[C@]12CC(C=O)C(=O)C(O)=C1CC[C@@H]1C2CC[C@@]2(C)C1CC[C@]2(C)O` (some centres undefined), the TGI with UACC-62 melanoma turned out to be 36.5 µM; in the assay on LXFL 529 NSCLC, 31.6 µM; in the assay with RXF 393 renal it was 37.3 µM; in the assay on DMS 114 small cell lung, 33.4 µM; in the assay on SK-OV-3 ovarian, 46.3 µM; in the assay with HOP-92 NSCLC, 33.4 µM.

For `NC(=O)C(=O)C1C(=O)N(c2ccccc2)N=C1N` (centres undefined), the TGI in the assay with UACC-62 melanoma, with CAKI-1 renal, in the assay with LXFL 529 NSCLC, in the assay on SK-OV-3 ovarian and in the assay on HOP-92 NSCLC was > 100 µM throughout.

As for `CC(=O)[CH-]C(=O)c1ccccc1.CC(=O)[CH-]C(=O)c1ccccc1.CC[C@H](/C=C/C(C)[C@H]1CCC2[C@@H]3CC=C4C[C@@H]([O-])CC[C@]4(C)C3CC[C@@]21C)C(C)C.CC[C@H](/C=C/C(C)[C@H]1CCC2[C@@H]3CC=C4C[C@@H]([O-])CC[C@]4(C)C3CC[C@@]21C)C(C)C.Cl.[Ti+4]` (some centres undefined), the GI50 in the assay with UACC-62 melanoma, in the assay with CAKI-1 renal, with LXFL 529 NSCLC, in the assay on RXF 393 renal and with SK-OV-3 ovarian was > 25 µM throughout. Also, the TGI in the assay on UACC-62 melanoma, in the assay on CAKI-1 renal, with LXFL 529 NSCLC, with RXF 393 renal and in the assay on SK-OV-3 ovarian was > 25 µM throughout.

In the case of `N#CC(C(=N/O)/C(=N\O)C(C#N)c1ccccc1)c1ccccc1` (centres undefined), the TGI in the assay on UACC-62 melanoma, with LXFL 529 NSCLC, in the assay with RXF 393 renal, with DMS 114 small cell lung, with SK-OV-3 ovarian and with HOP-92 NSCLC was > 100 µM in each case.

With `CCCCCN(CCCCC)C(=O)[C@H](CCC(=O)O)NC(=O)c1cc2ccccc2[nH]1`, the TGI in the assay with UACC-62 melanoma is > 100 µM; in the assay on CAKI-1 renal, > 100 µM; in the assay with LXFL 529 NSCLC it was > 100 µM; in the assay with RXF 393 renal, 93.5 µM; in the assay on DMS 114 small cell lung it was > 100 µM; with SK-OV-3 ovarian, > 100 µM. The molecule also had a TGI in the assay with HOP-92 NSCLC of 99.4 µM.

Take `COc1cccc2c(SCC(=O)Nc3ccccc3-c3ccccc3NC(=O)CSc3c4ccccc4nc4c(OC)cccc34)c3ccccc3nc12`: the TGI in the assay with UACC-62 melanoma, in the assay on RXF 393 renal and in the assay with DMS 114 small cell lung was > 100 µM throughout.

`COc1cc2c3cc1Oc1c(OC)c(OC)cc4c1[C@@H](Cc1ccc(O)c(c1)Oc1ccc(cc1)C[C@@H]3N(C)CC2)N(C)CC4`: the TGI with UACC-62 melanoma worked out at 30.5 µM; in the assay with CAKI-1 renal, 19.7 µM; with LXFL 529 NSCLC it was 24.8 µM; in the assay on RXF 393 renal, 25.9 µM; in the assay on HOP-92 NSCLC, 24.7 µM.

Turning to `COc1ccc(/C=C\c2cc(OC)c(OC)c(OC)c2)cc1OC(=O)CC(N)C(=O)O` (centres undefined), the GI50 is 0.000354 µM with UACC-62 melanoma, 0.00227 µM with PC-3 prostate, 0.00122 µM with RXF 393 renal and 0.00339 µM in the assay on HOP-92 NSCLC. In addition, the TGI with UACC-62 melanoma was > 100 µM; in the assay on NCI/ADR-RES ovarian it was 0.000534 µM; in the assay with DMS 114 small cell lung, 0.00318 µM; in the assay with HOP-92 NSCLC it was 77.3 µM.

`C[C@]12Cc3conc3C(O)=C1CC[C@@H]1C2CC[C@@]2(C)C1CC[C@]2(C)O` (some centres undefined): the TGI with UACC-62 melanoma was 29.2 µM; with LXFL 529 NSCLC, 35.7 µM; with RXF 393 renal it was 44 µM; in the assay on DMS 114 small cell lung it was 43.4 µM; with SK-OV-3 ovarian, 57.4 µM; in the assay with HOP-92 NSCLC, 61.5 µM.

As for `O=[N+]([O-])c1cccc(S(=O)(=O)N/N=C/c2cc(I)cc([N+](=O)[O-])c2O)c1`, the TGI in the assay on UACC-62 melanoma came out at 45.2 µM; in the assay on CAKI-1 renal it was 50.9 µM; with LXFL 529 NSCLC, 48.3 µM; in the assay on RXF 393 renal, 56.3 µM; with DMS 114 small cell lung, 53.8 µM; with SK-OV-3 ovarian it was 73.2 µM. Further, the TGI in the assay on HOP-92 NSCLC was found to be 35.1 µM.

For `COc1ccc(NC(=O)c2oc3cc(O)ccc3c(=O)c2C)c([N+](=O)[O-])c1`, the TGI with UACC-62 melanoma, in the assay with CAKI-1 renal, in the assay with LXFL 529 NSCLC, in the assay on RXF 393 renal, with DMS 114 small cell lung and in the assay with SK-OV-3 ovarian was > 100 µM in each case. Also, the TGI in the assay with HOP-92 NSCLC is > 100 µM.

As for `Nn1c(-c2cccc(Cl)c2)nc2ccccc2c1=O`, the TGI in the assay on UACC-62 melanoma, in the assay on CAKI-1 renal, in the assay with LXFL 529 NSCLC, with DMS 114 small cell lung, in the assay with SK-OV-3 ovarian and in the assay with HOP-92 NSCLC was > 100 µM throughout.

Consider `CCCCCCCCC(C)CCCCCCCCC(=O)OCC(COP(=O)([O-])OCC[N+](C)(C)C)OC(=O)CCCCCCCCC(C)CCCCCCCC` (centres undefined), for which the TGI in the assay on UACC-62 melanoma, in the assay with CAKI-1 renal, in the assay with LXFL 529 NSCLC, in the assay on RXF 393 renal, with DMS 114 small cell lung and in the assay with SK-OV-3 ovarian was > 100 µM throughout. Also, the TGI in the assay on HOP-92 NSCLC was > 100 µM.

As to `CC(C)N1C(C)[C@@H](c2ccccc2)O[P@@]1(=O)CC1=CCCCC1` (some centres undefined), the TGI in the assay on UACC-62 melanoma, in the assay on LXFL 529 NSCLC, in the assay on RXF 393 renal, in the assay with DMS 114 small cell lung, with SK-OV-3 ovarian and with HOP-92 NSCLC was > 100 µM each time.

Regarding `CCC[CH2][Sn]([CH2]CCC)([O]C(=O)c1cc(F)ccc1F)[O]C(=O)c1cc(F)ccc1F`, the GI50 in the assay on UACC-62 melanoma is 1.36 µM; in the assay on CAKI-1 renal, 1.06 µM; in the assay with LXFL 529 NSCLC it was 0.176 µM; in the assay with RXF 393 renal, 0.326 µM; in the assay on DMS 114 small cell lung, 0.372 µM; in the assay on SK-OV-3 ovarian, 2.79 µM. Besides, the GI50 with HOP-92 NSCLC is 1.26 µM. The TGI in the assay with UACC-62 melanoma stood at 2.65 µM; in the assay with CAKI-1 renal, 2.27 µM; in the assay on LXFL 529 NSCLC it was 0.491 µM; with RXF 393 renal, 1.12 µM; in the assay on DMS 114 small cell lung it was 1.41 µM; with SK-OV-3 ovarian, 5.64 µM. The TGI with HOP-92 NSCLC amounted to 2.52 µM.

`O=C(COC(=O)c1cccc2c(=O)c3ccccc3[nH]c12)Nc1ccc(Cl)cc1`: the TGI in the assay with UACC-62 melanoma is > 100 µM; with CAKI-1 renal, > 100 µM; with LXFL 529 NSCLC it was > 100 µM; in the assay with RXF 393 renal it was 66 µM; in the assay on DMS 114 small cell lung it was > 100 µM; in the assay with SK-OV-3 ovarian, > 100 µM. For the same molecule, in the assay with HOP-92 NSCLC, the TGI was > 100 µM.

As to `O=NN1CCN=C1c1ccc([N+](=O)[O-])cc1`, the TGI with UACC-62 melanoma, in the assay with CAKI-1 renal, in the assay with LXFL 529 NSCLC, in the assay with RXF 393 renal, in the assay on SK-OV-3 ovarian and in the assay with HOP-92 NSCLC was > 100 µM throughout.

Regarding `CN(CCCN1C(=O)c2cccc3cc([N+](=O)[O-])cc(c23)C1=O)CCN(C)CCCN1C(=O)c2cccc3cc([N+](=O)[O-])cc(c23)C1=O`, the TGI with UACC-62 melanoma, in the assay with CAKI-1 renal, with LXFL 529 NSCLC, in the assay with RXF 393 renal, in the assay with DMS 114 small cell lung and in the assay on SK-OV-3 ovarian was > 39.3 µM throughout.

With `O=C1NC2C3CC(OCc4ccccc4)(OCc4ccccc4)C2OC3O1` (centres undefined), the TGI in the assay on UACC-62 melanoma, in the assay on CAKI-1 renal, in the assay with DMS 114 small cell lung, with SK-OV-3 ovarian and with HOP-92 NSCLC was > 50 µM each time.

For the molecule `Cc1ccc(C)c(NC(=O)C(=O)C2C(=O)N(c3ccccc3)N=C2N)c1` (centres undefined), the TGI with UACC-62 melanoma, in the assay with CAKI-1 renal, in the assay on LXFL 529 NSCLC, in the assay on RXF 393 renal and with HOP-92 NSCLC was > 100 µM in each case.

On to `Cc1nn(Cc2ccccc2)cc1C(=O)Nc1sc2c(c1C(N)=O)CCC(=O)C2`, for which the GI50 in the assay with UACC-62 melanoma is 1.59 µM; in the assay with CAKI-1 renal it was 1.42 µM; in the assay with NCI/ADR-RES ovarian, 3.36 µM; with PC-3 prostate, 0.752 µM; with RXF 393 renal it was 2.35 µM; with SK-OV-3 ovarian, 2.7 µM. In addition, the GI50 in the assay on HOP-92 NSCLC is 1.88 µM; with T-47D breast, 1.27 µM. Further, the TGI is 3.4 µM in the assay on UACC-62 melanoma; 2.92 µM in the assay with CAKI-1 renal; 10.1 µM in the assay with NCI/ADR-RES ovarian; 5.14 µM in the assay on PC-3 prostate; 7.1 µM with RXF 393 renal; 9.22 µM in the assay with SK-OV-3 ovarian. Further, the TGI in the assay on HOP-92 NSCLC was 4.47 µM; in the assay with T-47D breast, 3.79 µM.

For the origin of these results see PubChem BioAssay (NCI).
